Results as given in US11952387B2, “Bicyclic heteroaromatic ring derivative” (priority 2018, dated 2024).

The compounds below were run on HRV14 (assay: Inhibitory activity against human rhinovirus infection and replication (quantitative real-time PCR)). Details: Human rhinovirus sp., MRC5; 100 nmol/L test compound; MRC-5 cells infected with HRV14 at MOI=0.2; 48 hours; viral load normalized to 18s rRNA; read-out: Percent Inhibition.
Type: cell-based
Method: Evaluation of inhibitory activity against human rhinovirus infection and replication (by quantitative real-time PCR)
A required amount of a test compound was weighed off and dissolved in dimethyl sulfoxide (DMSO) to yield a 10 mmol/L stock solution. Next, the stock solution was diluted with a medium for viral infection (minimum essential medium (MEM) supplemented with 2% fetal bovine serum, 5% Tryptose phosphate broth, and 30 mmol/L MgCl2) to prepare 100 nmol/L and 1000 nmol/L of test compound solutions. MRC-5 (human fetal lung fibroblast: ATCC) was suspended at a density of 30000 cells/mL in cell culture medium (MEM supplemented with 10% fetal bovine serum), and 625 μL of the suspension per well was seeded into a 24-well cell culture plate and cultured at 37° C. in 5% CO2. After 72 hours, it was confirmed that the plate had become 80% confluent. The plate was washed with 625 μL of phosphate-buffered physiological saline (Ca/Mg-free; PBS-) once, and 625 μL of the test compound solution prepared just before use was immediately added to the plate. After 30 minutes, the medium was removed followed by addition of 187.5 μL of the test compound solution that had been prepared such that the cells were infected with HRV14 (ATCC) at multiplicity of infection (MOI)=0.2. The cells were then cultured at 35° C. in 5% CO2. After additional 2 hours, 625 μL of the test compound solution prepared just before use was added, and the cells were cultured at 35° C. in 5% CO2. After 48 hours, the cells were washed with 625 μL of PBS- once, and total RNA was extracted from the cells using RNeasy (R) plus kit (Qiagen) according to the manufacturer's instruction. Subsequently, cDNA was synthesized using High-Capacity cDNA Reverse Transcription Kit (Thermo Fisher Scientific). Finally, quantitative real-time PCR was performed in 7500 Fast Real-time PCR system (Life technologies) to measure HRV14 and 18s rRNA. The measurement protocol consisted of the initial denaturation phase at 95° C. for 20 seconds followed by 40 cycles of the denaturation step at 95° C. for 3 seconds and the annealing/elongation step at 60° C. for 30 seconds. The primers used were HRV14 forward primer set forth in SEQ ID NO: 1 and HRV14 reverse primer set forth in SEQ ID NO: 2, and the probe is set forth in SEQ ID NO: 3.
18s rRNA was measured using Eukaryotic 18S rRNA Endogenous Control (Applied Biosystems). According to Equation 1, 18s ribosomal RNA was used as an internal standard to normalize the viral load of HRV14: Viral load of HRV14=The amount of HRV14 in virus-infected cells/the amount of 18s rRNA in virus-infected cells Equation 1
Inhibitory activity of test compounds was calculated as a percent inhibition (%) according to Equation 2: Percent inhibition (%)=[the viral load of HRV in virus-infected cells in the absence of the test compound −the viral load of HRV in virus-infected cells in the presence of the test compound]/[the viral load of HRV in virus-infected cells in the absence of the test compound]×100 Equation 2
The results of using 100 nmol/L test compound solutions were shown in the tables below according to Examples. In the tables, percent inhibition was expressed as follows: percent inhibition >80%: +++, 80%≥percent inhibition >50%: ++, and 50%≥percent inhibition:+.

SMILES	inhibition at 0.1 µM
COc1ccc(-c2c(C)nc3sc(C(C)(C)O)cn23)cc1S(=O)(=O)N[C@H]1CC[C@@H](OC)CC1 [Example 2-2]	≤ 50%
COc1c(F)cc(-c2c(C)nc3sc(C(C)(C)C)cn23)cc1S(=O)(=O)N[C@H]1CC[C@@H](O)CC1 [Example 2-3]	> 80%
COc1ccc(-c2c(C)nc3sc(C(C)(C)O)cn23)cc1S(=O)(=O)NC(C)(C)CO [Example 2-4]	≤ 50%
Cc1nc2sc(C(C)(C)O)cn2c1-c1ccc(N(C)C)c(S(=O)(=O)N[C@H]2CC[C@@H](O)CC2)c1 [Example 2-5]	≤ 50%
Cc1nc2sc(C(C)(C)O)nn2c1-c1ccc(C#N)c(S(=O)(=O)N[C@H]2CC[C@H](O)CC2)c1 [Example 2-6]	≤ 50%
Cc1nc2sc(C(C)(C)O)nn2c1-c1ccc(OC(F)(F)F)c(S(=O)(=O)N[C@H]2CC[C@H](O)CC2)c1 [Example 2-7]	> 80%
COc1c(F)cc(-c2c(C)nc3sc(C(C)(C)O)nn23)cc1S(=O)(=O)N[C@H]1CC[C@H](O)CC1 [Example 2-8]	> 80%
Cc1nc2sc(C(C)(C)O)nn2c1-c1ccc(C(F)(F)F)c(S(=O)(=O)N(C)[C@H]2CC[C@H](O)CC2)c1 [Example 2-9]	> 80%
Cc1nc2sc(C(C)(C)O)nn2c1-c1ccc(C(F)(F)F)c(S(=O)(=O)NC23CCC(O)(CC2)CC3)c1 [Example 2-10]	> 80%
Cc1nc2sc(C(C)(C)O)nn2c1-c1cnc(C(F)(F)F)c(S(=O)(=O)N[C@H]2CC[C@H](O)CC2)c1 [Example 2-11]	≤ 50%
COc1ccc(-c2c(C)nc3sc(C(C)(C)O)nn23)cc1S(=O)(=O)CCO [Example 2-12]	≤ 50%
COc1ccc(-c2c(C)nc3sc(C(C)(C)O)nn23)cc1S(C)(=O)=O [Example 2-13]	≤ 50%
Cc1nc2sc(C(C)(C)O)nn2c1-c1ccc(C(F)(F)F)c(S(=O)(=O)CCO)c1 [Example 2-14]	≤ 50%
Cc1nc2sc(C3CC3)nn2c1-c1ccc(C(F)(F)F)c(S(=O)(=O)CCO)c1 [Example 2-15]	50 to 80%
Cc1nc2sc(C(C)(C)O)nn2c1-c1ccc(C(F)(F)F)c(S(=O)(=O)N[C@H]2C[C@H](O)C2)c1 [Example 2-16]	> 80%
Cc1nc2sc(C(C)(C)O)nn2c1-c1ccc(C(F)(F)F)c(S(=O)(=O)N[C@H]2C[C@@H](O)C2)c1 [Example 2-17]	> 80%
Cc1nc2sc(C(C)(C)O)nn2c1-c1ccc(C(F)(F)F)c(S(=O)(=O)N[C@]2(C)C[C@@H](O)C2)c1 [Example 2-18]	> 80%
Cc1nc2sc(C(C)(C)O)nn2c1-c1ccc(C(F)(F)F)c(S(=O)(=O)N[C@]2(C)C[C@H](O)C2)c1 [Example 2-19]	> 80%
Cc1nc2sc(C(C)(C)O)nn2c1-c1ccc(C(F)(F)F)c(S(=O)(=O)NC2(CO)CC2)c1 [Example 2-20]	> 80%
Cc1nc2sc(C(C)(C)O)nn2c1-c1ccc(C(F)(F)F)c(S(=O)(=O)NCC(C)(C)O)c1 [Example 2-21]	> 80%
Cc1nc2sc(C(C)(C)O)nn2c1-c1ccc(C(F)(F)F)c(S(=O)(=O)NC2COC2)c1 [Example 2-22]	> 80%
Cc1nc2sc(C(C)(C)O)nn2c1-c1ccc(C(F)(F)F)c(S(=O)(=O)CC2CC(O)C2)c1 (centres unmarked) [Example 2-23]	50 to 80%
CC(=O)N1CC(NS(=O)(=O)c2cc(-c3c(C)nc4sc(C(C)(C)O)nn34)ccc2C(F)(F)F)C1 [Example 2-24]	≤ 50%
COc1ccc(-c2c(C)nc3sc(C(C)(C)O)nn23)cc1S(=O)(=O)C(C)C [Example 2-25]	≤ 50%
Cc1nc2sc(C(C)(C)O)nn2c1-c1ccc(C(F)(F)F)c(S(=O)(=O)CC2(C)COC2)c1 [Example 2-26]	> 80%
Cc1nc2sc(C(C)(C)O)nn2c1-c1ccc(C(F)(F)F)c(S(=O)(=O)CC(C)(C)O)c1 [Example 2-27]	> 80%
Cc1nc2sc(C(C)(C)O)nn2c1-c1ccc(C(F)(F)F)c(S(=O)(=O)C2COC2)c1 [Example 2-28]	> 80%

SMILES	inhibition at 0.1 µM
COc1c(F)cc(-c2c(C)nc3sc(C(C)(C)O)nn23)cc1S(=O)(=O)NC(C)(C)CO [Example 2-29]	> 80%
Cc1nc2sc(C(C)(C)O)nn2c1-c1ccc(C(F)(F)F)c(S(=O)(=O)NCC2(O)COC2)c1 [Example 2-30]	> 80%
Cc1nc2sc(C(C)(C)O)nn2c1-c1ccc(C(F)(F)F)c(S(=O)(=O)NC2(CO)COC2)c1 [Example 2-31]	> 80%
Cc1nc2sc(C(C)(C)O)nn2c1-c1ccc(C(F)(F)F)c(S(=O)(=O)NC2(CO)CC(F)(F)C2)c1 [Example 2-32]	> 80%
Cc1nc2sc(C(C)(C)O)nn2c1-c1ccc(C(F)(F)F)c(S(=O)(=O)NCC(O)C(F)(F)F)c1 (centres unmarked) [Example 2-33]	> 80%
COc1ccc(-c2c(C)nc3sc(C(C)(C)O)nn23)cc1S(=O)(=O)C(C)(C)C [Example 2-34]	> 80%
Cc1nc2sc(C(C)(C)O)nn2c1-c1ccc(C(F)(F)F)c(S(=O)(=O)CC2(CO)COC2)c1 [Example 2-35]	50 to 80%
Cc1nc2sc(C(C)(C)O)nn2c1-c1ccc(C(F)(F)F)c(S(=O)(=O)C2CN(C(=O)OC(C)(C)C)C2)c1 [Example 2-36]	> 80%
Cc1nc2sc(C(C)(C)O)nn2c1-c1ccc(C(F)F)c(S(=O)(=O)CC(C)(C)O)c1 [Example 2-37]	50 to 80%
Cc1nc2sc(C(C)(C)O)nn2c1-c1cccc(S(=O)(=O)CC(C)(C)O)c1 [Example 2-38]	≤ 50%
Cc1ccc(-c2c(C)nc3sc(C(C)(C)O)nn23)cc1S(=O)(=O)CC(C)(C)O [Example 2-39]	> 80%
COc1ccc(-c2c(C)nc3sc(C(C)(C)O)nn23)cc1S(=O)(=O)CC1(O)COC1 [Example 2-40]	≤ 50%
COc1ccc(-c2c(C)nc3sc(C(C)(C)O)nn23)cc1S(=O)(=O)CC1(C)COC1 [Example 2-41]	50 to 80%
COc1ccc(-c2c(C)nc3sc(C(C)(C)O)nn23)cc1S(=O)(=O)CCC(C)(C)O [Example 2-42]	≤ 50%
COc1c(F)cc(-c2c(C)nc3sc(C(C)(C)O)nn23)cc1S(=O)(=O)CC(C)(C)O [Example 2-43]	50 to 80%
Cc1nc2sc(C(C)(C)O)nn2c1-c1ccc(C(F)(F)F)c(S(=O)(=O)C2CC(F)(F)C2)c1 [Example 2-44]	> 80%
Cc1nc2sc(C(C)(C)O)nn2c1-c1ccc(C(F)(F)F)c(S(=O)(=O)CCC(C)(C)O)c1 [Example 2-45]	≤ 50%
Cc1nc2sc(C(C)(C)O)nn2c1-c1ccc(C(F)(F)F)c(S(=O)(=O)[C@H]2C[C@@H](O)C2)c1 [Example 2-46]	> 80%
Cc1nc2sc(C(C)(C)O)nn2c1-c1ccc(C(F)(F)F)c(S(=O)(=O)[C@H]2C[C@H](O)C2)c1 [Example 2-47]	> 80%
COc1ccc(-c2c(C)nc3sc(C(C)(C)O)nn23)cc1S(=O)(=O)C1COC1 [Example 2-49]	≤ 50%
COc1ccc(-c2c(C)nc3sc(C(C)(C)O)nn23)cc1S(=O)(=O)CC(C)(C)CO [Example 2-50]	≤ 50%
COc1ccc(-c2c(C)nc3sc(C(C)(C)O)nn23)cc1S(=O)(=O)C1CN(C(=O)OC(C)(C)C)C1 [Example 2-51]	> 80%
Cc1nc2sc(C(C)(C)O)cn2c1-c1ccc(C(F)(F)F)c(S(=O)(=O)CC(C)(C)O)c1 [Example 2-52]	≤ 50%
[2H]C([2H])([2H])C(O)(CS(=O)(=O)c1cc(-c2c(C)nc3sc(C(C)(C)O)nn23)ccc1OC)C([2H])([2H])[2H] [Example 2-53]	50 to 80%
COc1ccc(-c2c(C)nc3sc(C(C)(C)O)nn23)cc1S(=O)(=O)[C@H]1C[C@@H](O)C1 [Example 2-54]	≤ 50%
COc1ccc(-c2c(C)nc3sc(C(C)(C)O)nn23)cc1S(=O)(=O)[C@H]1C[C@@](C)(O)C1 [Example 2-55]	≤ 50%
